Results as given in PMC12386283, “Elucidating the Complex Structural and Molecular Mechanisms Driving P-Glycoprotein-Mediated Transport of Cardiac Glycosides” (International Journal of Molecular Sciences, 2025).
“And” between values parts separate entries of the source, which are not always exact repeats. Equal entries are not always repeated. Where two headings read alike, the source gives them in different places.

Columns and labels:
[1] = molecular target: T1, wild-type mouse Pgp (MDR3) (Mus musculus, UniProt P21447); assay: biochemical
T1 sequence (P21447 whole entry): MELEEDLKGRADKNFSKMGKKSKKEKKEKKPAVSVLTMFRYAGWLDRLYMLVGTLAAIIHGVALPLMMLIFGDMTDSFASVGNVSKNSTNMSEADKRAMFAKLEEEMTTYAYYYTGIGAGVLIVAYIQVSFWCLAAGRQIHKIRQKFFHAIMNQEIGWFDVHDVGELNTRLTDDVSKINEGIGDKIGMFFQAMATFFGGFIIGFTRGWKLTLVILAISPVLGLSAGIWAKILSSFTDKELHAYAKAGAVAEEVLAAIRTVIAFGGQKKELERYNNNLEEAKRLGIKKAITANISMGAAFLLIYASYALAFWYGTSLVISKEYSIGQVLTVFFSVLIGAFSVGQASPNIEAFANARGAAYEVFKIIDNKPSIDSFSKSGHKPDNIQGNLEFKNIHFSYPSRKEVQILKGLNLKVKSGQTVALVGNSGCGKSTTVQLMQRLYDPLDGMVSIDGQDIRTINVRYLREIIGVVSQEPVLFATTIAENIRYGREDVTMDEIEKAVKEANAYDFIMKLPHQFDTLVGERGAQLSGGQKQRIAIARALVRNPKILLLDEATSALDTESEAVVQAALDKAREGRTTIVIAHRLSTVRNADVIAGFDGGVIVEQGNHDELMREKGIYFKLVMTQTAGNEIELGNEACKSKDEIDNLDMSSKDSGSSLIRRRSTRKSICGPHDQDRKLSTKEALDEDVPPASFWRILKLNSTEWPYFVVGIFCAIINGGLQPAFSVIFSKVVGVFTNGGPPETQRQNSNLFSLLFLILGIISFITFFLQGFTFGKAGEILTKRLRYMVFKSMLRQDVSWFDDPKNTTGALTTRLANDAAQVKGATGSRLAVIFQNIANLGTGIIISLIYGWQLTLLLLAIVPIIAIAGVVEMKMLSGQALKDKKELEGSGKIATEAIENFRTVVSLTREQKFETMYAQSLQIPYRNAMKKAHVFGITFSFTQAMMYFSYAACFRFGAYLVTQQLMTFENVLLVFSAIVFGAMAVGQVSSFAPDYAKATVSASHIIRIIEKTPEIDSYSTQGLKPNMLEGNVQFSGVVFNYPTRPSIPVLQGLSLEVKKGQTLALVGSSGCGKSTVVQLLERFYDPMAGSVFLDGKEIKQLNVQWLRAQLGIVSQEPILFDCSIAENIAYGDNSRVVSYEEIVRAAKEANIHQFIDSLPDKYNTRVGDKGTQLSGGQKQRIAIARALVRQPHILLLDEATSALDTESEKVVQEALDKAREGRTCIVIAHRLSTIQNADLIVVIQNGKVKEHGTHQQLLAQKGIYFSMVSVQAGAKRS
Experimental: (§1) Overexpression of wild-type mouse Pgp (MDR3) was achieved by using genetically engineered strains of Pichia pastoris with a 6X histidine tag. The cells were cultured in glycerol media, and methanol was used to induce the overexpression of Pgp at the Bioexpression and Fermentation Facility (BFF), University of Georgia, Athens, GA, USA. A repeated cycle of freezing using liquid nitrogen, blending, and thawing was used to lyse the Pgp-expressing P. pastoris cells. The protein was purified using affinity chromatography with nickel-nitrilotriacetic acid (Ni-NTA) resin (Thermo Fisher Scientific, Waltham, MA, USA). DDM was used to solubilize the protein, and the solution was concentrated using Amicon Ultra-15 100 kDa cut-off filters (EMD Millipore, Billerica, MA, USA). The concentration of purified protein was measured at 280 nm using a calculated extinction coefficient of 1.28 per mg mL^−1 on a Nanodrop (DeNovix, Wilmington, DE, USA). […] The purified DDM-solubilized Pgp was aliquoted and stored at −80 °C for future analysis.
(§2) Approximately 40 µL of DDM-solubilized Pgp was dialyzed for two hours against HEPES buffer (20 mM HEPES, 100 mM NaCl, 5 mM MgCl2, 2 mM DTT, pH 7.4) to remove any remnants of the detergent, DDM. The dialyzed protein was mixed with 4 mg mL^−1 of the extruded liposomes and incubated on ice for at least one hour to allow Pgp to integrate into the liposomes. To remove any additional detergent and further facilitate Pgp integration into the liposome, the solution was dialyzed for a second time for two hours in HEPES buffer to form proteoliposomes, and the concentration of Pgp reconstituted in liposomes was determined using the Bio-Rad DC Protein assay. Finally, the solution was aliquoted and stored at −80 °C for future use.
The intrinsic tryptophan residues in the protein can be selectively excited and emitted at 295 nm and 330 nm wavelengths, respectively. The binding of the drug to the protein can alter the spatial arrangement encountered by the tryptophan residue(s) and thereby regulate the fluorescence intensity of the protein [52]. […] Proteoliposomes diluted to 1 µM in Chifflet buffer containing 2 mM DTT were titrated against varying concentrations of drugs. The intrinsic protein fluorescence was measured at 330 nm upon excitation at 295 nm using an Olis DM 45 spectrophotometer (Olis Corporation, Bogart, GA, USA). To nullify the effect of Rayleigh bands on the observed spectra, a 10 nm band-pass filter was inserted on the excitation and emission paths of the spectrophotometer. The drug-induced quenching of intrinsic Pgp fluorescence was corrected (Fcorrected) for factors such as dilution, background fluorescence, and inner filter effects using the equation mentioned below (Equation (2)).(2) Fcorrected=F−B10^εexbex+εembemQ/2 where Fcorrected = Drug-induced quenching of intrinsic Pgp fluorescence; F = Emitted intrinsic Pgp fluorescence at 330 nm; [Q] = Concentration of drug; εex and εem = Excitation and emission extinction coefficients, respectively; bex and bem = Path lengths of excitation (0.4 mm) and emission (10 mm) wavelengths, respectively; and B = Background fluorescence measured from drug and solvent.
The resulting quenching curves were fit using a modified Stern-Volmer equation (Equation (3)), as follows:(3) Fcorrected=FOcorrected/1+KsvQ+Funquenched where Fcorrected = The corrected fluorescence; F0(corrected) = Fluorescence recorded in the absence of drug; [Q] = Concentration of drug; Ksv = Stern–Volmer constant; and F(unquenched) = unquenched fluorescence.

[2] = molecular target: T1, wild-type mouse Pgp (MDR3)
Experimental: as §1, §2
Acrylamide, an aqueous collisional quencher, can be used to determine the changes in conformation upon Pgp-drug interaction. The principle of this technique is that as the drug interacts with the protein, the conformation of the accessible tryptophan residues in the protein also changes, resulting in a shift in fluorescence intensity. For this experiment, to measure the fluorescence of Pgp reconstituted in liposomes, in the presence (250 µM) or absence of drug(s), the excitation and emission wavelengths used were 295 nm and 330 nm, respectively. The proteoliposomes were diluted to a final concentration of 1 µM in Chifflet buffer (pH 7.4) containing 2 mM DTT, and it was titrated against an increasing concentration of acrylamide. A concentration of 11 µM N-acetyl-L-tryptophanamide (NATA), an analog of tryptophan, was used as a positive control to determine non-specific quenching. A saturated concentration of AMPPNP (3.2 mM), a non-hydrolysable form of ATP, was used to generate an outward-open conformation of Pgp. All the experiments for acrylamide quenching were performed at 21 °C. To correct the fluorescence intensities for background, dilution, and inner filter effects, […] was used. A Stern–Volmer plot was constructed with F0(corrected)/F(corrected) versus acrylamide concentration. The slope of the curve determined the degree of quenching, and it was related to the Stern–Volmer constant (Ksv) by Equation (4), as follows:(4) Focorrected/Fcorrected=1+KsvQ where F0(corrected)/F(corrected) = Stern–Volmer plot; Ksv = Stern–Volmer constant; and [Q] = acrylamide concentration.

[3] = 1 µM proteoliposome, excitation 295 nm, emission 330 nm, absence of ATP and co-factors
[4] = 250 µM drug, 3.2 mM AMPPNP, 21 °C
[5] = 250 µM drug, 3.2 mM AMPPNP, inferred from Ksv
[6] = 250 µM drug, absence of AMPPNP, 21 °C, apo-Pgp 2.5 ± 0.04
[7] = 250 µM drug, no AMPPNP, inferred from Ksv

SMILES	Kd [1]	Stern-Volmer constant (Ksv) from CG-induced tryptophan fluorescence quenching in Pgp [1, 3]	Drug-induced Ksv of Pgp (acrylamide quenching), AMPPNP (+) [2, 4]	Drug-induced Ksv of Pgp (acrylamide quenching), AMPPNP (+) ([2]; 250 µM drug, 3.2 mM AMPPNP, 21 °C, listed as digitoxigenin)	Pgp conformation with drug in the presence of a nucleotide [2, 5]	Drug-induced Ksv of Pgp (acrylamide quenching), AMPPNP (-) [2, 6]	Pgp conformation upon drug binding in the absence of a nucleotide [2, 7]	Stern-Volmer constant (Ksv) from CG-induced tryptophan fluorescence quenching in Pgp [1]	Drug-induced Ksv of Pgp (acrylamide quenching), AMPPNP (+) [2]	Drug-induced Ksv of Pgp (acrylamide quenching), AMPPNP (-) [2]	Pgp conformation upon drug binding in the absence of a nucleotide [2]	Pgp conformation with drug in the presence of a nucleotide [2]
C[C@]12CC[C@H](O)C[C@H]1CC[C@@H]1[C@@H]2CC[C@]2(C)[C@@H](C3=CC(=O)OC3)CC[C@]12O [Digitoxigenin, (3β,5β)-3,14-Dihydroxy-card-20(22)-enolide]	56.7 ± 15.6 µM	0.01765 ± 0.0048 µM⁻¹	1.51 ± 0.02 M⁻¹	1.51 ± 0.02 M⁻¹ and 1.51 ± 0.01 M⁻¹	outward open	1.91 ± 0.04 M⁻¹	intermediate	–	–	–	–	–
C[C@]12CC[C@H](O)C[C@H]1CC[C@@H]1[C@@H]2C[C@@H](O)[C@]2(C)[C@@H](C3=CC(=O)OC3)CC[C@]12O [Digoxigenin, 3β,12β,14-Trihydroxy-5β,20(22)-cardenolide]	–	0.09839 ± 0.0146 µM⁻¹	1.70 ± 0.01 M⁻¹	–	outward open	2.26 ± 0.04 M⁻¹	intermediate	–	–	–	–	–
C[C@H]1O[C@@H](O[C@H]2[C@@H](O)C[C@H](O[C@H]3[C@@H](O)C[C@H](O[C@H]4CC[C@@]5(C)[C@H](CC[C@@H]6[C@@H]5C[C@@H](O)[C@]5(C)[C@@H](C7=CC(=O)OC7)CC[C@]65O)C4)O[C@@H]3C)O[C@@H]2C)C[C@H](O)[C@@H]1O [Digoxin]	6.85 ± 0.83 µM	–	–	–	–	–	–	0.146 ± 0.0117 and 0.146 ± 0.0117 µM^−1	1.51 ± 0.02 and 1.51 ± 0.02 M^−1	2.55 ± 0.06 and 2.55 ± 0.06 M^−1	no effect	outward open
